Data published in patent publication US12162858B2, “Quinoline derivatives as inhibitors of AXL/MER RTK and CSF1R” (QURIENT CO., LTD., priority 2018, dated 2024).

biological target: T1, Mer (Homo sapiens, UniProt Q12866); assay: LanthaScreen Eu kinase binding assay for Mer; settings: read-out: Mer kinase binding activity (Kd)
T1 construct: purchased Life Technologies
T1 sequence (Q12866 21-999): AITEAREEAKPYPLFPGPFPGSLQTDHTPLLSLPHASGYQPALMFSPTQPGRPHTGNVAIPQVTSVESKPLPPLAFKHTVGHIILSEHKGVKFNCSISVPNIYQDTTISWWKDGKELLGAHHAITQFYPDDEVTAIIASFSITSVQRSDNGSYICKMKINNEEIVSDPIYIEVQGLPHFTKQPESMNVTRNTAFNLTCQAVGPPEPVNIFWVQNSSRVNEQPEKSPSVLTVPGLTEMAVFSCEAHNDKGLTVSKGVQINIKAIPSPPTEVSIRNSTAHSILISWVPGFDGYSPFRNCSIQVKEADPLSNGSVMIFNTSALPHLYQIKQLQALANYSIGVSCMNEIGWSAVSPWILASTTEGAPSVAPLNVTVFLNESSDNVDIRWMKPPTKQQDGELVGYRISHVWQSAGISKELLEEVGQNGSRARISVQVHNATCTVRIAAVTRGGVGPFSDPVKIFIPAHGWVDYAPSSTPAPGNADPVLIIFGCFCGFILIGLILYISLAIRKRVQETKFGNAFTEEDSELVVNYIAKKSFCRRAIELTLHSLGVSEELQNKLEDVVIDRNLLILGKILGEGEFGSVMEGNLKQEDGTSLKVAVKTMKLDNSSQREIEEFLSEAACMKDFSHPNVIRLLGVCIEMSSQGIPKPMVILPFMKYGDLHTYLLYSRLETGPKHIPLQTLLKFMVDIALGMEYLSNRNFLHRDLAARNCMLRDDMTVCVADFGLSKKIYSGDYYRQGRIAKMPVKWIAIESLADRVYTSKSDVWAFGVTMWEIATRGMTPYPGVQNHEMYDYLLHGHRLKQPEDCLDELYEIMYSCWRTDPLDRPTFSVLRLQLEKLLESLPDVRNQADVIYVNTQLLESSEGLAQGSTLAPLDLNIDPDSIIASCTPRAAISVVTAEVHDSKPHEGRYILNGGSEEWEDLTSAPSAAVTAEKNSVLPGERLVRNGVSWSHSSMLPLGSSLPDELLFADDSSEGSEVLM
Method in brief: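 Kd values come from control-normalized FRET loss, referenced to DMSO vehicle wells, after 1 h at room temperature. Each compound was serially diluted over eight steps in DMSO and competed against Tracer 236 (Alexa Fluor 647) for the kinase, which was tagged by a Eu anti-GST antibody.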

SMILES | Kd [nM]
COc1cc2nccc(Oc3ccc(NC(=O)c4nn(C5CCNC5)cc4OCC(F)(F)F)cc3F)c2cc1OC (stereo not shown) [Compound 78] | 100 to 500
COc1cc2nccc(Oc3ccc(NC(=O)c4nn(C5CCNC5)cc4OCC(F)(F)F)cc3C)c2cc1OC (stereo not shown) [Compound 81] | 100 to 500
COc1cc2nccc(Oc3ccc(NC(=O)c4nn(CCN)cc4OCC(F)(F)F)cc3C)c2cc1OC [Compound 82] | 100 to 500
COc1cc2nccc(Oc3ccc(NC(=O)c4nn(C5CCNC5)cc4OCC(F)(F)F)cc3)c2cc1OC (stereo not shown) [Compound 86] | 100 to 500
COc1cc2nccc(Oc3ccc(NC(=O)c4nn(CCN)cc4OCC(F)(F)F)cc3)c2cc1OC [Compound 88] | 100 to 500
COc1cc2nccc(Oc3ccc(NC(=O)c4nn(CCC5CCCC5)cc4OCC(F)(F)F)nc3)c2cc1OC [Compound 93] | < 100
COc1cc2nccc(Oc3ccc(NC(=O)c4nn(C5CCN(C)C5)cc4OCC(F)(F)F)c(F)c3)c2cc1OC (stereo not shown) [Compound 94] | < 100
COc1cc2nccc(Oc3ccc(NC(=O)c4nn(CC5COC5)cc4OCC(F)(F)F)c(F)c3)c2cc1OC [Compound 95] | < 100

Further lines, results first:

Kd [nM] | SMILES
< 100 | COc1cc2nccc(Oc3ccc(NC(=O)c4nn(C5CC5)cc4OCC(F)(F)F)nc3)c2cc1OC [Compound 5]
< 100 | COc1cc2nccc(Oc3ccc(NC(=O)c4nn(C5CCOC5)cc4OCC(F)(F)F)c(F)c3)c2cc1OC (stereo not shown) [Compound 77]
< 100 | COc1cc2nccc(Oc3ccc(NC(=O)c4nn(CCN)cc4OCC(F)(F)F)cc3F)c2cc1OC [Compound 79]
< 100 | COc1cc2nccc(Oc3ccc(NC(=O)c4nn(CC(C)O)cc4OCC(F)(F)F)cc3F)c2cc1OC (stereo not shown) [Compound 80]
< 100 | COc1cc2nccc(Oc3ccc(NC(=O)c4nn(CC(C)O)cc4OCC(F)(F)F)cc3C)c2cc1OC (stereo not shown) [Compound 83]
< 100 | COCCn1cc(OCC(F)(F)F)c(C(=O)Nc2ccc(Oc3ccnc4cc(OC)c(OC)cc34)c(C)c2)n1 [Compound 84]
< 100 | COc1cc2nccc(Oc3ccc(NC(=O)c4nn(C5CCOC5)cc4OCC(F)(F)F)cc3C)c2cc1OC (stereo not shown) [Compound 85]
< 100 | COc1cc2nccc(Oc3ccc(NC(=O)c4nn(CC(C)C)cc4OCC(F)(F)F)cc3)c2cc1OC [Compound 87]
< 100 | COc1cc2nccc(Oc3ccc(NC(=O)c4nn(CC(C)O)cc4OCC(F)(F)F)cc3)c2cc1OC (stereo not shown) [Compound 89]
< 100 | COc1cc2nccc(Oc3ccc(NC(=O)c4nn(C5CCOCC5)cc4OCC(F)(F)F)nc3)c2cc1OC [Compound 90]
< 100 | COc1cc2nccc(Oc3ccc(NC(=O)c4nn(C5CCN(C)C5)cc4OCC(F)(F)F)nc3)c2cc1OC (stereo not shown) [Compound 91]
